Experimental data reported in ChEMBL document CHEMBL5584231, “Rational design of a new short anticancer peptide with good potential for cancer treatment” (Eur J Med Chem, 2024).
The source made the active and inactive calls. No cut-off for these calls is given here. Non-standard residues stand in square brackets, D forms with d. Residues, ends and D or L forms follow the SMILES beside them. Aad = N[C@@H](CCCC(=O)O)C(=O)O

Experiments:
Cell membrane [1] = experiment: Induction of morphological changes in cell membrane of human MCF7 cells assessed as intracellular outflow at 1 times IC50 incubated for 1 hr by SEM analysis; assay type: cell membranes
[2] = Therapeutic index, ratio of HC10 for mouse RBC to IC50 for cytotoxicity against RG cells (unknown origin); assay type: toxicity, cell-based; conditions: mouse RBC and RG cells, read-out: TI
[3] = Drug uptake in HK-2 cells at 5 uM incubated for 1 hr by laser confocal scanning microscopic analysis; assay type: ADME, cell-based; conditions: human, hk-2, 1 h
[4] = Acute toxicity in female Balb/c mouse assessed as cellular swelling in spleen at approximately LD50 administered as single ip dose by H and E staining based analysis; assay type: organism-based; conditions: in vivo
[5] = Drug uptake in human MCF7 cells at 5 uM incubated for 1 hr by laser confocal scanning microscopic analysis; assay type: ADME, cell-based; conditions: mcf7, 1 h
4T1 [6] = experiment: Antitumor activity against mouse 4T1 cells implanted in female Balb/c mouse assessed as increase in tumor cell apoptosis at 12 micromol/kg, ip administered every other day for 2 weeks by H and E staining based analysis; assay type: functional, organism-based; conditions: dose 12.0 µmol/kg
Cell membrane [7] = experiment: Induction of cell membrane damage in human MCF7 cells assessed as nucleic acid leakage at 1 to 2 times IC50 measured after 0.5 to 6 hrs by UV based analysis; assay type: cell membranes; conditions: time 0.5-6 hrs
A549 = experiment: Cytotoxicity against human A549 cells assessed as inhibition of cell growth incubated for 1 hr by MTT assay; assay type: functional, cell-based; conditions: A549, 1 h
[8] = Stability in mouse serum assessed as compound remaining at 10 mM incubated for 6 hrs by RP-HPLC analysis; assay type: ADME, cell-free; conditions: read-out: Stability
[9] = Stability in mouse serum assessed as compound remaining at 10 mM incubated for 12 hrs by RP-HPLC analysis; assay type: ADME, cell-free; conditions: read-out: Stability
MCF7 [10] = experiment: Cytotoxicity against human MCF7 cells assessed as reduction in cell survival at 0.5 to 1 times IC50 incubated for 24 hrs in presence of 1 uM paclitaxel by MTT assay; assay type: functional, cell-based
[11] = Therapeutic index, ratio of HC10 for mouse RBC to IC50 for cytotoxicity against human HeLa cells; assay type: toxicity, cell-based; conditions: mouse RBC and HeLa cells, read-out: TI
[12] = Therapeutic index, ratio of HC10 for mouse RBC to IC50 for cytotoxicity against human MCF7 cells; assay type: toxicity, cell-based; conditions: mouse RBC and MCF7 cells, read-out: TI
[13] = Stability in mouse serum assessed as half life at 10 mM incubated for 12 hrs by RP-HPLC analysis; assay type: ADME, cell-free
[14] = Toxicity in female Balb/c mouse implanted with mouse 4T1 cells assessed as pathological changes in kidney at 12 micromol/kg, ip administered every other day for 2 weeks by H and E staining based analysis; assay type: organism-based; conditions: in vivo, 336 h, dose 12 µmol/kg
MCF7 [15] = experiment: Induction of apoptosis in human MCF7 cells assessed as increase in intracellular ROS generation at 1 times IC50 measured after 0 to 360 mins by DCFH-DA staining based analysis; assay type: functional, cell-based; conditions: time 0-360 min
4T1 [16] = experiment: Antitumor activity against mouse 4T1 cells implanted in female Balb/c mouse assessed as reduction in tumor growth at 12 micromol/kg, ip administered every other day for 2 weeks and measured every 2 days; assay type: functional, organism-based; conditions: dose 12.0 µmol/kg
[17] = Toxicity in female Balb/c mouse implanted with mouse 4T1 cells assessed as pathological changes in spleen at 12 micromol/kg, ip administered every other day for 2 weeks by H and E staining based analysis; assay type: organism-based; conditions: in vivo, 336 h, dose 12 µmol/kg
MCF7 [18] = experiment: Cytotoxicity against human MCF7 cells assessed as inhibition of cell growth incubated for 1 hr by MTT assay; assay type: functional, cell-based; conditions: MCF7, 1 h
MCF7 [19] = experiment: Induction of apoptosis in human MCF7 cells assessed as live cells at 1 times IC50 measured after 24 hrs by Annexin V-FITC staining based flow cytometry analysis (reference value: 92%); assay type: functional
MCF7 [20] = experiment: Induction of apoptosis in human MCF7 cells assessed as late apoptotic cells at 1 times IC50 measured after 24 hrs by Annexin V-FITC staining based flow cytometry analysis (reference value: 1.60%); assay type: functional
MCF7 [21] = experiment: Effect on cell cycle progression in human MCF7 cells at 1 times IC50 measured after 1 hr by PI/RNase staining based flow cytometry analysis; assay type: functional
[22] = Acute toxicity in female Balb/c mouse assessed as heart damage at approximately LD50 administered as single ip dose by H and E staining based analysis; assay type: organism-based; conditions: in vivo
[23] = Cytotoxicity against RG cells (unknown origin) assessed as inhibition of cell growth incubated for 1 hr by MTT assay; assay type: functional, cell-based
[24] = Therapeutic index, ratio of HC10 for mouse RBC to IC50 for cytotoxicity against human A549 cells; assay type: toxicity, cell-based; conditions: mouse RBC and A549 cells, read-out: TI
[25] = Acute toxicity in female Balb/c mouse assessed as cellular swelling in liver at approximately LD50 administered as single ip dose by H and E staining based analysis; assay type: organism-based; conditions: in vivo
Cell membrane [26] = experiment: Induction of cell membrane damage in human MCF7 cells assessed as protein leakage at 1 to 2 times IC50 measured after 0.5 to 6 hrs by UV based analysis; assay type: cell membranes; conditions: time 0.5-6 hrs
Cell membrane [27] = experiment: Disruption of cell membrane in human MCF7 cells assessed as LDH release at 2.5 to 40 uM incubated for 1 hr by fluorescence based microplate reader analysis; assay type: cell membranes; conditions: dose 2.5-40 µM
4T1 [28] = experiment: Antitumor activity against mouse 4T1 cells implanted in female Balb/c mouse assessed as increase in tumor cell necrosis at 12 micromol/kg, ip administered every other day for 2 weeks by H and E staining based analysis; assay type: functional, organism-based; conditions: dose 12.0 µmol/kg
Cell membrane [29] = experiment: Disruption of cell membrane integrity in human MCF7 cells assessed as increase in PI fluorescence measured after 1 hr by laser confocal scanning microscopic analysis; assay type: cell membranes
MCF7 [30] = experiment: Anti-invasion activity in human MCF7 cells assessed as reduction in number of passing cells on polycarbonate membrane at 1 times IC50 measured after 24 hrs by crystal violet staining based transwell assay; assay type: functional, cell-based
Cell membrane [31] = experiment: Disruption of cell membrane integrity in human MCF7 cells assessed as increase in PI fluorescence at 1 times IC50 by laser confocal scanning microscopic analysis; conditions: time 0-120 min, TDE = time-dependent effect
Cell membrane [32] = experiment: Induction of morphological changes in cell membrane of human MCF7 cells assessed as cell depression at 1 times IC50 incubated for 1 hr by SEM analysis; assay type: cell membranes
4T1 [33] = experiment: Antitumor activity against mouse 4T1 cells implanted in female Balb/c mouse assessed as reduction in tumor weight at 12 micromol/kg, ip administered every other day for 2 weeks and measured every 2 days relative to control; assay type: functional; parameters: scale not given: the % may be the effect or the level left; conditions: dose 12 µmol/kg
Cell membrane [34] = experiment: Induction of morphological changes in cell membrane of human MCF7 cells assessed as membrane damage at 1 times IC50 incubated for 1 hr by SEM analysis; assay type: cell membranes
Cell membrane [35] = experiment: Induction of morphological changes in cell membrane of human MCF7 cells assessed as severe membrane rupture at 1 times IC50 incubated for 1 hr by SEM analysis; assay type: cell membranes
HeLa = experiment: Cytotoxicity against human HeLa cells assessed as inhibition of cell growth incubated for 1 hr by MTT assay; assay type: functional, cell-based
[36] = Toxicity in female Balb/c mouse implanted with mouse 4T1 cells assessed as pathological changes in lung at 12 micromol/kg, ip administered every other day for 2 weeks by H and E staining based analysis; assay type: organism-based; conditions: in vivo, 336 h, dose 12 µmol/kg

| SMILES | Activity (Cell membrane [1]) | selectivity ratio [2] | Drug uptake [3] | Activity [4] | Drug uptake [5] | Activity (4T1 [6]) | Activity (Cell membrane [7]) | IC50 (A549) [µM] | remaining at 6 h, 10000 µM [8] [%] | remaining at 12 h, 10000 µM [9] [%] | Activity (MCF7 [10]) | selectivity ratio [11] | selectivity ratio [12] | half-life at 10000 µM [13] [h] | Activity [14] | Activity (MCF7 [15]) | Activity (4T1 [16]) | Activity [17] | IC50 (MCF7 [18]) [µM] | Activity (MCF7 [19]) [%] | further results |
| --- | --- | --- | --- | --- | --- | --- | --- | --- | --- | --- | --- | --- | --- | --- | --- | --- | --- | --- | --- | --- | --- |
| CC(C)C[C@H](NC(=O)[C@H](CCCCN)NC(=O)[C@H](CCCCN)NC(=O)[C@H](CC(C)C)NC(=O)[C@H](CC(C)C)NC(=O)[C@H](CCCCN)NC(=O)[C@H](CCCCN)NC(=O)[C@H](CC(C)C)NC(=O)[C@H](CC(C)C)NC(=O)[C@H](CCCCN)NC(=O)[C@H](CCCCN)NC(=O)[C@H](CC(C)C)NC(=O)[C@@H](N)CC(C)C)C(=O)N[C@@H](CCC(=O)O)C(N)=O (H-LLKKLLKKLLKKLE-NH2) | Active | 14.2 | Not Active | Toxic | Active | Active | Active | 14.4 | > 60 | 28.6 | Active | 32.1 | 14.2 | 7.78 | Non-Toxic | Active | Active | Non-Toxic | 21.4 | 57.2 | Activity (MCF7 [20]): 19.1%; Activity (MCF7 [21]): inactive; Activity [22]: Non-Toxic; IC50 [23]: 21.3 µM; selectivity ratio [24]: 21.1; Activity [25]: Toxic; Activity (Cell membrane [26]): Active; Activity (Cell membrane [27]): Active; Activity (4T1 [28]): Active; Activity (Cell membrane [29]): Dose-Dependent Effect; Activity (MCF7 [30]): Active; Activity (Cell membrane [31]): Tde; Activity (Cell membrane [32]): Active; Activity (4T1 [33]): 33.4%; Activity (Cell membrane [34]): Active; Activity (Cell membrane [35]): Active; IC50 (HeLa): 9.46 µM; Activity [36]: Non-Toxic |
| CC(C)C[C@H](NC(=O)[C@H](CC(C)C)NC(=O)[C@H](CCCCN)NC(=O)[C@H](CCCCN)NC(=O)[C@H](CC(C)C)NC(=O)[C@H](CC(C)C)NC(=O)[C@H](CCCCN)NC(=O)[C@H](CCCCN)NC(=O)[C@H](CC(C)C)NC(=O)[C@H](CC(C)C)NC(=O)[C@H](CCCCN)NC(=O)[C@H](CCCCN)NC(=O)[C@H](CC(C)C)NC(=O)[C@@H](N)CC(C)C)C(N)=O (H-LLKKLLKKLLKKLL-NH2) | Active | 1.69 | Active | Toxic | Active | Active | Active | 3.65 | > 60 | 45.6 | Active | 1.83 | 2.27 | 11.1 | Non-Toxic | Active | Active | Non-Toxic | 4.76 | 58.1 | Activity (MCF7 [20]): 19.2%; Activity (MCF7 [21]): inactive; Activity [22]: Non-Toxic; IC50 [23]: 6.41 µM; selectivity ratio [24]: 2.96; Activity [25]: Toxic; Activity (Cell membrane [26]): Active; Activity (Cell membrane [27]): Active; Activity (4T1 [28]): Active; Activity (Cell membrane [29]): Dose-Dependent Effect; Activity (MCF7 [30]): Active; Activity (Cell membrane [31]): Tde; Activity (Cell membrane [32]): Active; Activity (4T1 [33]): 28.4%; Activity (Cell membrane [34]): Active; Activity (Cell membrane [35]): Active; IC50 (HeLa): 5.91 µM; Activity [36]: Non-Toxic |
| CC(C)C[C@H](NC(=O)[C@H](CCCCN)NC(=O)[C@H](CCCCN)NC(=O)[C@H](CC(C)C)NC(=O)[C@H](CC(C)C)NC(=O)[C@H](CCCCN)NC(=O)[C@H](CCCCN)NC(=O)[C@H](CC(C)C)NC(=O)[C@H](CC(C)C)NC(=O)[C@H](CCCCN)NC(=O)[C@H](CCCCN)NC(=O)[C@H](CC(C)C)NC(=O)[C@@H](N)CC(C)C)C(=O)N[C@@H](CCCC(=O)O)C(N)=O (H-LLKKLLKKLLKKL[Aad]-NH2) | Active | 12.7 | Not Active | Toxic | Active | Active | Active | 10.3 | > 60 | 31.6 | Active | 35.7 | 16.3 | 7.6 | Non-Toxic | Active | Active | Non-Toxic | 15.7 | 55.9 | Activity (MCF7 [20]): 13.8%; Activity (MCF7 [21]): inactive; Activity [22]: Non-Toxic; IC50 [23]: 20.1 µM; selectivity ratio [24]: 24.9; Activity [25]: Toxic; Activity (Cell membrane [26]): Active; Activity (Cell membrane [27]): Active; Activity (4T1 [28]): Active; Activity (Cell membrane [29]): Dose-Dependent Effect; Activity (MCF7 [30]): Active; Activity (Cell membrane [31]): Tde; Activity (Cell membrane [32]): Active; Activity (4T1 [33]): 52.4%; Activity (Cell membrane [34]): Active; Activity (Cell membrane [35]): Active; IC50 (HeLa): 7.15 µM; Activity [36]: Non-Toxic |
